Reference: the NIST ThermoML archive (doi:10.1021/acs.jced.8b00729)

Details: Gamma attenuation method

C1C[C@@H]2[C@H]3CC[C@H](C3)[C@@H]2C1 [exo-tetrahydrodicyclopentadiene]
Details	mass density [kg/m3]
267.3 K, 1480 kPa, Liquid	961.5
267.3 K, 6000 kPa, Liquid	962.3
267.9 K, 700 kPa, Liquid	960.4
267.9 K, 3060 kPa, Liquid	962.1
289.1 K, 6000 kPa, Liquid	952
290.2 K, 1480 kPa, Liquid	939.1
290.9 K, 700 kPa, Liquid	937.8
292.8 K, 3060 kPa, Liquid	940.4
307 K, 700 kPa, Liquid	924.7
307.5 K, 1480 kPa, Liquid	928.1
308.7 K, 3060 kPa, Liquid	930.1
309 K, 6000 kPa, Liquid	940.8
335.4 K, 6000 kPa, Liquid	918.1
336.6 K, 3060 kPa, Liquid	911.5
337.1 K, 700 kPa, Liquid	908.7
337.2 K, 1480 kPa, Liquid	910.1
368.4 K, 700 kPa, Liquid	881.1
369.6 K, 1480 kPa, Liquid	884.2
371.3 K, 3060 kPa, Liquid	884.3
373.9 K, 6000 kPa, Liquid	893.8
391.4 K, 6000 kPa, Liquid	883.9
391.9 K, 700 kPa, Liquid	861.9
394.8 K, 1480 kPa, Liquid	863.2
394.8 K, 3060 kPa, Liquid	864.7
430.8 K, 6000 kPa, Liquid	850.6
431.4 K, 700 kPa, Liquid	824.8
431.4 K, 1480 kPa, Liquid	832.6
431.4 K, 3060 kPa, Liquid	834.1
453.2 K, 3060 kPa, Liquid	820.5
453.8 K, 700 kPa, Liquid	801.2
454.4 K, 1480 kPa, Liquid	815.4
454.6 K, 6000 kPa, Liquid	829.8
483.1 K, 1480 kPa, Liquid	796.7
483.8 K, 700 kPa, Liquid	779.5
485.1 K, 3060 kPa, Liquid	800.4
485.9 K, 6000 kPa, Liquid	807
510 K, 700 kPa, Liquid	759.3
510.1 K, 1480 kPa, Liquid	772.1
510.3 K, 3060 kPa, Liquid	783.9
512.1 K, 6000 kPa, Liquid	777.4
529.9 K, 3060 kPa, Liquid	756
530.4 K, 1480 kPa, Liquid	743
531.9 K, 6000 kPa, Liquid	752.2
532.4 K, 700 kPa, Liquid	737.7
562.1 K, 700 kPa, Liquid	646.3
563.8 K, 1480 kPa, Liquid	716.9
564.1 K, 3060 kPa, Liquid	726.9
566.8 K, 6000 kPa, Liquid	719.2
603.4 K, 700 kPa, Gas	25.5
617.6 K, 1480 kPa, Gas	153.4
623.8 K, 6000 kPa, Liquid	661.1
627.1 K, 3060 kPa, Liquid	633.8
651.6 K, 700 kPa, Gas	22.9
651.9 K, 3060 kPa, Liquid	590.9
652.4 K, 6000 kPa, Liquid	615.5
652.9 K, 1480 kPa, Gas	55.3
681.8 K, 6000 kPa, Liquid	579.7
682.7 K, 700 kPa, Gas	29.4
683.2 K, 1480 kPa, Gas	57.8
685 K, 3060 kPa, Gas	193.2
714 K, 6000 kPa, Gas	465.2
715 K, 3060 kPa, Gas	124.1
715.8 K, 1480 kPa, Gas	58
730.2 K, 700 kPa, Gas	19.5
743.7 K, 3060 kPa, Gas	104.8
743.8 K, 6000 kPa, Gas	256.7
744 K, 1480 kPa, Gas	52.4
744.7 K, 700 kPa, Gas	19.7
771.9 K, 700 kPa, Gas	26.4
773.7 K, 1480 kPa, Gas	50.2
773.7 K, 6000 kPa, Gas	152.1
774 K, 3060 kPa, Gas	96.1
803.3 K, 700 kPa, Gas	24.4
803.8 K, 3060 kPa, Gas	87.6
804 K, 1480 kPa, Gas	47.9
804.1 K, 6000 kPa, Gas	142
833 K, 700 kPa, Gas	25.4
833.3 K, 1480 kPa, Gas	52.1
833.4 K, 6000 kPa, Gas	120.1
833.5 K, 3060 kPa, Gas	83.9
872.2 K, 3060 kPa, Gas	70.8
872.5 K, 1480 kPa, Gas	46.1
873.3 K, 700 kPa, Gas	24.4
873.4 K, 6000 kPa, Gas	110.1
